Reference: patent publication US20100311965A1, “2-AMINOQUINAZOLINE DERIVATIVE” (CARNA BIOSCIENCES INC., priority 2007, published 2010)

Each compound was assayed against T1, Flt3 kinase (Homo sapiens, UniProt P36888) (assay: Kinase activity, mobility shift assay (MSA), Flt3). Details: at 0.01 μM; read-out: inhibitory activity against Flt3 kinase.
T1 construct: purchased Carna Biosciences Inc. (Kobe) 08-154
T1 sequence (P36888 27-993): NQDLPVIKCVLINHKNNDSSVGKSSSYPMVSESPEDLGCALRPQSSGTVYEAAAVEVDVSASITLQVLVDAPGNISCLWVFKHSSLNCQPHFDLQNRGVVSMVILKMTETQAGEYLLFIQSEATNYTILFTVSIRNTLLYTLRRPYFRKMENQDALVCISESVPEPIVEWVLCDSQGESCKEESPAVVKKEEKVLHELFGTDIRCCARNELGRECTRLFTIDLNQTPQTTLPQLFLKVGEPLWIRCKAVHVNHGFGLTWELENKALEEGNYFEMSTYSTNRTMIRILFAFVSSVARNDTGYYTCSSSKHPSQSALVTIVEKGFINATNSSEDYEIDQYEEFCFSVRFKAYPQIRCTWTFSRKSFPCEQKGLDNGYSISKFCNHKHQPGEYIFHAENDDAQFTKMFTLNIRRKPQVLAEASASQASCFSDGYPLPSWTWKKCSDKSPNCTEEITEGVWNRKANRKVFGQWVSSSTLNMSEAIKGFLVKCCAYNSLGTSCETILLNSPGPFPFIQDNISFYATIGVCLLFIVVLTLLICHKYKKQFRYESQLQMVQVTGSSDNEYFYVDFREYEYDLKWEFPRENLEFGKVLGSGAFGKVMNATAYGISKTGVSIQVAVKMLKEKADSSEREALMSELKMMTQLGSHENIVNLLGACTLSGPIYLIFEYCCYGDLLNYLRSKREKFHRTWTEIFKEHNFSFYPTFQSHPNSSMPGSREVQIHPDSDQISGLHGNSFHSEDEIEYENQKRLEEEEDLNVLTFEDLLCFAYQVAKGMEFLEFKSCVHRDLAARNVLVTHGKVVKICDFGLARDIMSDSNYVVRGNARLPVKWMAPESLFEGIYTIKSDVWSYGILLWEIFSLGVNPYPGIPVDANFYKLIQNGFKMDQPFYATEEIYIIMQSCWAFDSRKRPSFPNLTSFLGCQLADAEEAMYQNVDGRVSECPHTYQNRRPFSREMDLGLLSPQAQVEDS
Type: biochemical
Method: (§1) A test compound was dissolved in DMSO to obtain a 10 mM test compound solution, which was stored in a dark place at −20° C. until measurement. When bioactivity (kinase activity) is measured, a test compound solution is diluted with DMSO so that the concentration becomes 100 times higher than […], and then diluted 25 times (DMSO concentration is 4%) with an assay buffer described hereinafter.
(§2) Products manufactured by Carna Biosciences Inc. (Kobe) used as protein kinases (recombinant human kinases) in the test are as follows:
(§3) SYK (product number: 08-176), JAK3 (product number: 08-046), FLT3 (product number: 08-154), PDGFRα (PDGFRA) (product number: 08-157), TRKA (NTRK1) (product number: 08-186), KDR (product number: 08-191), CDK2/cycA (product number: 04-103), and AurA (AURKA) (product number: 05-101).
(§4) Kinase activity was measured by a mobility shift assay (MSA) method using QuickScout Screening Assist™ MSA (commercially available kit, manufactured by Carna Biosciences Inc.)
(§5) 5 μl of a test compound solution (the concentration is 4 times of the final concentration) dissolved or suspended in an assay buffer [20 mM HEPES, 0.01% Triton™ X-100, 1 mM dithiothreitol, pH 7.5] or 5 μl of a solvent (4% DMSO-assay buffer) was charged in a 384 well plate made of polypropylene (product number 781280, manufactured by Greiner Bio-One Co., Ltd.). Then, 5 μl of ATP/substrate/metal solution of QuickScout Screening Assist MSA was added. Furthermore, 10 μl of a kinase solution diluted with assay buffer was added and the reaction was initiated. However, only assay buffer (10 μl) was added to blank. The concentration of kinase and reaction conditions were controlled in accordance with the protocol of QuickScout Screening Assist MSA. Then, the reaction was terminated by adding 60 μl of termination buffer of QuickScout Screening Assist MSA and the amount of a substrate (S) and a phosphorylated substrate (P) in the reaction solution were determined in accordance with the protocol of QuickScout Screening Assist MSA using LabChip3000 (manufactured by Caliper Life Sciences Co., MA, USA), and also inhibition of the test compound at a concentration of 0.01, 0.1 and 1 μM was measured, respectively. The amounts of S and P were expressed by the height of each separated peak. Inhibition (%) of the test compound was calculated in accordance with the following equation:
(§6) Inhibition (%)=(1−(C−A)/(B−A))×100
(§7) where A denotes blank, B denotes a solvent and C denotes P/(P+S) of a well of the compound.

inhibition at 0.01 µM | SMILES
≥ 50% | Cc1cccc2cnc(Nc3ccc4c(c3)NC(=O)CO4)nc12 [Example 8, 6-(8-methylquinazolin-2-ylamino)-2H-benzo[b][1,4]oxazin-3(4H)-one]
≥ 50% | CC(=O)Nc1cccc(Nc2ncc3cccc(C)c3n2)c1 [Example 11, N-(3-(8-methylquinazolin-2-ylamino)phenyl)acetamide]
≥ 50% | Clc1cccc2cnc(Nc3ccc4cn[nH]c4c3)nc12 [Example 32, 8-chloro-N-(1H-indazol-6-yl)quinazoline-2-amine]

Same assay, conditions: at 0.1 μM; read-out: inhibitory activity against Flt3 kinase

inhibition at 0.1 µM | SMILES
≥ 50% | Cc1cccc2cnc(Nc3ccc4c(c3)OCO4)nc12 [Example 6, N-(benzo[d][1,3]dioxol-5-yl)-8-methylquinazoline-2-amine]
≥ 50% | Cc1cccc2cnc(Nc3ccc4c(c3)OCCO4)nc12 [Example 7, N-(2,3-dihydrobenzo[b][1,4]dioxin-6-yl)-8-methylquinazoline-2-amine]

Each compound was assayed against T2, Syk kinase (Homo sapiens, UniProt P43405) (assay: Kinase activity, mobility shift assay (MSA), Syk). Details: read-out: inhibitory activity against Syk kinase.
T2 construct: purchased Carna Biosciences Inc. (Kobe) 08-176
Type: biochemical
Method: as §1, §2, §3, §4, §5, §6, §7

inhibition at 0.1 µM | SMILES
≥ 50% | Cc1cccc2cnc(Nc3ccc4cn[nH]c4c3)nc12 [Example 1, N-(1H-indazol-6-yl)-8-methylquinazoline-2-amine]
≥ 50% | Cc1cccc2cnc(Nc3ccc4[nH]nnc4c3)nc12 [Example 2, N-(1H-benzo[d][1,2,3]triazol-5-yl)-8-methylquinazoline-2-amine]
≥ 50% | Cc1ccc(Nc2ncc3cccc(C)c3n2)cc1O [Example 29, 5-(8-methylquinazolin-2-ylamino)-2-methylphenol]
≥ 50% | Cc1n[nH]c2cc(Nc3ncc4cccc(C)c4n3)ccc12 [Example 34, 8-methyl-N-(3-methyl-1H-indazol-6-yl)-quinazoline-2-amine]
≥ 50% | Cc1cc(Nc2ncc3cccc(C)c3n2)cc2[nH]ncc12 [Example 37, 8-methyl-N-(4-methyl-1H-indazol-6-yl)-quinazoline-2-amine]
≥ 50% | Cc1cccc2cnc(Nc3cc(N)c4cn[nH]c4c3)nc12 [Example 52, 8-methyl-N-(4-amino-1H-indazol-6-yl)quinazoline-2-amine]

More lines, now with the values behind:

SMILES | inhibition at 0.1 µM
Cc1c(O)ccc2cnc(Nc3ccc4cn[nH]c4c3)nc12 [Example 48, 7-hydroxy-N-(1H-indazol-6-yl)-8-methylquinazoline-2-amine] | ≥ 50%
Cc1c(NCCO)ccc2cnc(Nc3ccc4cn[nH]c4c3)nc12 [Example 73, 2-[2-(1H-indazol-6-ylamino)-8-methylquinazolin-7-ylamino]ethanol] | ≥ 50%
Cc1c(N)ccc2cnc(Nc3ccc4cn[nH]c4c3)nc12 [Example 74, 7-amino-N-(1H-indazol-6-yl)-8-methylquinazoline-2-amine] | ≥ 50%
Cc1c(N2CCC(CO)CC2)ccc2cnc(Nc3ccc4cn[nH]c4c3)nc12 [Example 84, {1-[2-(1H-indazol-6-ylamino)-8-methylquinazolin-7-yl]piperidin-4-yl}methanol] | ≥ 50%
Cc1n[nH]c2cc(Nc3ncc4ccc(N5CCC(CO)CC5)c(C)c4n3)ccc12 [Example 94, {1-[2-(3-methyl-1H-indazol-6-ylamino)-8-methylquinazolin-7-yl]piperidin-4-yl}methanol] | ≥ 50%
COc1ccc2cnc(Nc3ccc4c(C)n[nH]c4c3)nc2c1C [Example 96, N-(3-methyl-1H-indazol-6-yl)-7-methoxy-8-methylquinazoline-2-amine] | ≥ 50%
COc1ccc2cnc(Nc3cc(C)c4cn[nH]c4c3)nc2c1C [Example 97, N-(4-methyl-1H-indazol-6-yl)-7-methoxy-8-methylquinazoline-2-amine] | ≥ 50%
Cc1cccc2cnc(Nc3cc(NC(=O)NCCO)c4cn[nH]c4c3)nc12 [Example 98, 1-(2-hydroxyethyl)-3-[6-(8-methylquinazolin-2-ylamino)-1H-indazol-4-yl]urea] | ≥ 50%
Cc1c(F)ccc2cnc(Nc3cc(N)c4cn[nH]c4c3)nc12 [Example 99, 7-fluoro-N-(4-amino-1H-indazol-6-yl)-8-methylquinazoline-2-amine] | ≥ 50%
Cc1c(N2CCC(CO)CC2)ccc2cnc(Nc3cc(N)c4cn[nH]c4c3)nc12 [Example 101, {1-[2-(4-amino-1H-indazol-6-ylamino)-8-methylquinazolin-7-yl]piperidin-4-yl}methanol] | ≥ 50%
COc1ccc2cnc(Nc3cc(N)c4cn[nH]c4c3)nc2c1C [Example 102, N-(4-amino-1H-indazol-6-yl)-7-methoxy-8-methylquinazoline-2-amine] | ≥ 50%
Cc1cc(Nc2ncc3ccc(NCCO)c(C)c3n2)cc2[nH]ncc12 [Example 109, 2-[2-(4-methyl-1H-indazol-6-ylamino)-8-methylquinazolin-7-ylamino]ethanol] | ≥ 50%
Cc1c(F)ccc2cnc(Nc3cc(N)c4nc[nH]c4c3)nc12 [Example 123, 7-fluoro-8-methyl-N-(4-amino-1H-benzo[d]imidazol-6-yl)quinazoline-2-amine] | ≥ 50%
Cc1c(NCCO)ccc2cnc(Nc3cc(N)c4cn[nH]c4c3)nc12 [Example 124] | ≥ 50%

These compounds were tested on Rat basophilic cells RBL-2H3 (assay: Action against IgE-induced degranulation (β-hexosaminidase release)). Details: RBL-2H3 cells, anti-DNP-IgE / DNP-BSA, read-out: inhibitory activity against IgE-induced degranulation.
Type: cell-based
Method: An inhibitory action against SYK was evaluated by an inhibitory action against degranulation of basophils induced by IgE. Rat basophilic cells RBL-2H3 were incubated with an anti-DNP-IgE antibody (1 μg/mL, Zymed) overnight. After washing cells twice with HBSS, an antigen DNP-BSA (1 μg/mL, LSL) was added, followed by incubation for 30 minutes. The supernatant was taken and an activity of β-hexosaminidase in the solution isolated by degranulation was measured using p-nitrophenyl-N-β-D-glucosaminide as a substrate. Using an absorbance meter (Spectra MAX Pro, Molecular Devices), each absorbance at 405 nm and 570 nm of the solution was measured and an increase in the amount was taken as an enzyme activity. 10 minutes before the addition of an antigen, a test material and a solvent (0.1% DMSO) were added to cells. Inhibition rate (%) against degranulation was calculated by the following equation.
Inhibition rate (%)=(1−(A−C)/(B−C))×100
where A denotes an increase in absorbance of a test material group, B denotes an increase in absorbance of a solvent group, and C denotes an increase in absorbance of a solvent group which is not stimulated by an antigen.

SMILES | inhibition at 0.05 µM
Cc1c(N2CCN(C)CC2)ccc2cnc(Nc3ccc4cn[nH]c4c3)nc12 [Example 63, N-(1H-indazol-6-yl)-8-methyl-7-(4-methylpiperazin-1-yl)quinazoline-2-amine] | ≥ 50%
CCNC(=O)n1ncc2c(N)cc(Nc3ncc4cccc(C)c4n3)cc21 [Example 79, 4-amino-N-ethyl-6-(8-methylquinazolin-2-ylamino)-1H-indazole-1-carboxamide] | ≥ 50%
CCOC(=O)NCc1cc(Nc2ncc3cccc(C)c3n2)cc2[nH]ncc12 [Example 80, Ethyl [6-(8-methylquinazolin-2-ylamino)-1H-indazol-4-yl]methylcarbamate] | ≥ 50%
